Structures can show the parent of a compound that is named as a salt. Where two headings read alike, the source gives them in different places.
Tests used:
[1] = target: T1, SARS-CoV-2 PLpro (nsp3 1564–1878) (Severe acute respiratory syndrome coronavirus 2, UniProt P0DTD1); assay: biochemical; parameters: FRET-quenched peptide (Pro3) cleavage by PLpro, 10 min pre-incubation, slope over 20 min, normalised to no-compound control; conditions: low concentration screen, read-out: % of control remaining
[2] = target: T1, SARS-CoV-2 PLpro (nsp3 1564–1878); assay: biochemical; parameters: FRET-quenched peptide (Pro3) cleavage by PLpro, 10 min pre-incubation, slope over 20 min, normalised to no-compound control; conditions: high concentration screen, read-out: % of control remaining

c1cc(CN2CCCNCCNCCCNCC2)ccc1CN1CCCNCCNCCCNCC1 [Plerixafor]
remaining activity at 1.25 µM ([1]; Well no.=6893): 101%
remaining activity at 1.25 µM ([1]; Well no.=8356): 91.6%
remaining activity at 1.25 µM ([1]; Well no.=8751): 98.3%
remaining activity at 3.75 µM ([2]; Well no.=8356): 92.1%
remaining activity at 3.75 µM ([2]; Well no.=8751): 99.2%

CO[C@H](C(=O)[C@@H](O)[C@@H](C)O)[C@@H]1Cc2cc3cc(O[C@H]4C[C@@H](O[C@@H]5C[C@@H](O)[C@H](O)[C@@H](C)O5)[C@H](O)[C@@H](C)O4)c(C)c(O)c3c(O)c2C(=O)[C@H]1O[C@H]1C[C@@H](O[C@@H]2C[C@@H](O)[C@@H](O[C@@H]3C[C@](C)(O)[C@H](O)[C@@H](C)O3)[C@@H](C)O2)[C@H](O)[C@@H](C)O1 [Plicamycin]
remaining activity at 1.25 µM ([1]; Well no.=1666): 107%
remaining activity at 3.75 µM ([2]; Well no.=1666): 106%

CC(C)(C)c1[nH]cnc1/C=c1\[nH]c(=O)/c(=C/c2ccccc2)[nH]c1=O [Plinabulin (NPI-2358)]
remaining activity at 1.25 µM ([1]; Well no.=4834): 99%
remaining activity at 3.75 µM ([2]; Well no.=4834): 102%

CC1=CC(=O)c2c(O)cccc2C1=O [Plumbagin]
remaining activity at 1.25 µM ([1]; Well no.=3351): 85.5%
remaining activity at 3.75 µM ([2]; Well no.=3351): 79.6%

C[C@]1(C(=O)O)CCC[C@]2(C)c3cc(O)ccc3CC[C@@H]12 [Podocarpic acid]
remaining activity at 1.25 µM ([1]; Well no.=3296): 94%
remaining activity at 3.75 µM ([2]; Well no.=3296): 96.2%

COc1cc([C@@H]2c3cc4c(cc3[C@H](O)[C@H]3COC(=O)[C@H]23)OCO4)cc(OC)c1OC [Podophyllotoxin]
remaining activity at 1.25 µM ([1]; Well no.=1002): 91.2%
remaining activity at 1.25 µM ([1]; Well no.=3705): 99.5%
remaining activity at 3.75 µM ([2]; Well no.=1002): 92.3%
remaining activity at 3.75 µM ([2]; Well no.=3705): 105%

OC[C@H]1O[C@@H](Oc2cc(O)cc(/C=C/c3ccc(O)cc3)c2)[C@H](O)[C@@H](O)[C@@H]1O [Polydatin]
remaining activity at 1.25 µM ([1]; Well no.=6304): 100%
remaining activity at 1.25 µM ([1]; Well no.=8196): 102%
remaining activity at 3.75 µM ([2]; Well no.=6304): 98.5%
remaining activity at 3.75 µM ([2]; Well no.=8196): 97.4%

Nc1cccc2c1C(=O)N(C1CCC(=O)NC1=O)C2=O (centres unmarked) [Pomalidomide]
remaining activity at 1.25 µM ([1]; Well no.=4963): 100%
remaining activity at 3.75 µM ([2]; Well no.=4963): 96.3%

Cc1ccc(C(=O)Nc2ccc(CN3CCN(C)CC3)c(C(F)(F)F)c2)cc1C#Cc1cnc2cccnn12 [Ponatinib (AP24534)]
remaining activity at 1.25 µM ([1]; Well no.=4913): 98.1%
remaining activity at 3.75 µM ([2]; Well no.=4913): 95.4%

O=S(=O)(O)c1cc(S(=O)(=O)O)c2c(N=Nc3ccc(S(=O)(=O)O)c4ccccc34)c(O)ccc2c1 [Ponceau 4R]
remaining activity at 1.25 µM ([1]; Well no.=8550): 104%
remaining activity at 3.75 µM ([2]; Well no.=8550): 102%

CCC/N=C1\S/C(=C\c2ccc(OC[C@H](O)CO)c(Cl)c2)C(=O)N1c1ccccc1C [Ponesimod]
remaining activity at 1.25 µM ([1]; Well no.=8001): 106%
remaining activity at 3.75 µM ([2]; Well no.=8001): 102%

CC[C@@H]([C@H](C)O)n1ncn(-c2ccc(N3CCN(c4ccc(OC[C@@H]5CO[C@@](Cn6cncn6)(c6ccc(F)cc6F)C5)cc4)CC3)cc2)c1=O [Posaconazole]
remaining activity at 1.25 µM ([1]; Well no.=4763): 93.6%
remaining activity at 3.75 µM ([2]; Well no.=4763): 92.9%

C#CCC(Cc1cnc2nc(N)nc(N)c2n1)c1ccc(C(=O)N[C@@H](CCC(=O)O)C(=O)O)cc1 (some centres unmarked) [Pralatrexate]
remaining activity at 1.25 µM ([1]; Well no.=7550): 97%
remaining activity at 1.25 µM ([1]; Well no.=9172): 83.9%
remaining activity at 3.75 µM ([2]; Well no.=7550): 95.8%
remaining activity at 3.75 µM ([2]; Well no.=9172): 84.5%

CCCN[C@H]1CCc2nc(N)sc2C1 [Pramipexole (dihydrochloride)]
remaining activity at 1.25 µM ([1]; Well no.=6229): 108%
remaining activity at 3.75 µM ([2]; Well no.=6229): 106%

CCCN[C@H]1CCc2nc(N)sc2C1 [Pramipexole]
remaining activity at 1.25 µM ([1]; Well no.=1983): 101%
remaining activity at 3.75 µM ([2]; Well no.=1983): 104%

CC(C)N(CCNC(=O)CN1CCCC1=O)C(C)C [Pramiracetam]
remaining activity at 1.25 µM ([1]; Well no.=4950): 96.1%
remaining activity at 3.75 µM ([2]; Well no.=4950): 96.4%

O=C(Nc1cccc2c(=O)cc(-c3nnn[nH]3)oc12)c1ccc(OCCCCc2ccccc2)cc1 [Pranlukast]
remaining activity at 1.25 µM ([1]; Well no.=1720): 99.8%
remaining activity at 1.25 µM ([1]; Well no.=7329): 103%
remaining activity at 3.75 µM ([2]; Well no.=1720): 101%
remaining activity at 3.75 µM ([2]; Well no.=7329): 98.4%

CC(C(=O)O)c1ccc2c(c1)Cc1cccnc1O2 (centres unmarked) [Pranoprofen]
remaining activity at 1.25 µM ([1]; Well no.=2139): 98.7%
remaining activity at 3.75 µM ([2]; Well no.=2139): 99.8%

CC(=O)Oc1cc2c(s1)CCN(C(C(=O)C1CC1)c1ccccc1F)C2 (centres unmarked) [Prasugrel (Effient)]
remaining activity at 1.25 µM ([1]; Well no.=4765): 103%
remaining activity at 3.75 µM ([2]; Well no.=4765): 104%

CC(=O)Oc1cc2c(s1)CCN(C(C(=O)C1CC1)c1ccccc1F)C2 (centres unmarked) [Prasugrel]
remaining activity at 1.25 µM ([1]; Well no.=6562): 97%
remaining activity at 3.75 µM ([2]; Well no.=6562): 102%

COc1ccc(-c2cc(=O)c3ccc(O)cc3o2)cc1 [Pratol]
remaining activity at 1.25 µM ([1]; Well no.=3829): 97.5%
remaining activity at 3.75 µM ([2]; Well no.=3829): 96.6%

COc1ccc(C(=O)c2c(C)n(CCN3CCOCC3)c3ccccc23)cc1 [Pravadoline]
remaining activity at 1.25 µM ([1]; Well no.=1805): 97.2%
remaining activity at 3.75 µM ([2]; Well no.=1805): 97.7%

CC[C@H](C)C(=O)O[C@H]1C[C@H](O)C=C2C=C[C@H](C)[C@H](CC[C@@H](O)C[C@@H](O)CC(=O)O)[C@H]21 [Pravastatin sodium salt hydrate]
remaining activity at 1.25 µM ([1]; Well no.=5462): 96.8%
remaining activity at 3.75 µM ([2]; Well no.=5462): 97.8%

CC[C@H](C)C(=O)O[C@H]1C[C@H](O)C=C2C=C[C@H](C)[C@H](CC[C@@H](O)C[C@@H](O)CC(=O)O)[C@H]21 [Pravastatin sodium]
remaining activity at 1.25 µM ([1]; Well no.=4889): 96.4%
remaining activity at 3.75 µM ([2]; Well no.=4889): 96.9%

O=C(C1CCCCC1)N1CC(=O)N2CCc3ccccc3C2C1 (centres unmarked) [Praziquantel]
remaining activity at 1.25 µM ([1]; Well no.=908): 106%
remaining activity at 1.25 µM ([1]; Well no.=2155): 102%
remaining activity at 3.75 µM ([2]; Well no.=908): 104%
remaining activity at 3.75 µM ([2]; Well no.=2155): 100%

COc1cc2nc(N3CCN(C(=O)C4=CC5C=CC4CC5)CC3)nc(N)c2cc1OC (centres unmarked) [Prazobind]
remaining activity at 1.25 µM ([1]; Well no.=1311): 104%
remaining activity at 3.75 µM ([2]; Well no.=1311): 105%

COc1cc2nc(N3CCN(C(=O)c4ccco4)CC3)nc(N)c2cc1OC [Prazosin (hydrochloride)]
remaining activity at 1.25 µM ([1]; Well no.=6411): 96.4%
remaining activity at 3.75 µM ([2]; Well no.=6411): 85.9%

COc1cc2nc(N3CCN(C(=O)c4ccco4)CC3)nc(N)c2cc1OC [Prazosin.HCl]
remaining activity at 1.25 µM ([1]; Well no.=1689): 103%
remaining activity at 3.75 µM ([2]; Well no.=1689): 100%

CC(=O)OCC(=O)[C@@]1(O)CC[C@H]2[C@@H]3CCC4=CC(=O)C=C[C@]4(C)[C@H]3[C@@H](O)C[C@@]21C [Prednisolone acetate]
remaining activity at 1.25 µM ([1]; Well no.=5859): 102%
remaining activity at 3.75 µM ([2]; Well no.=5859): 95.6%

C[C@]12C=CC(=O)C=C1CC[C@@H]1[C@@H]2[C@@H](O)C[C@@]2(C)[C@H]1CC[C@]2(O)C(=O)CO [Prednisolone]
remaining activity at 1.25 µM ([1]; Well no.=2141): 99.3%
remaining activity at 1.25 µM ([1]; Well no.=6605): 102%
remaining activity at 3.75 µM ([2]; Well no.=6605): 102%
